{"source": "patent US6277886A", "about": "(priority 1996, dated 2001)", "key": {"[1]": {"conditions": "for Weight: 2 mg/kg/day oral", "protocol": "(§1) Spontaneously hypertensive rats, three month-old, were used. […] Controls received an equivalent volume of tap water. Treatment lasted 14 days. During this period, systolic blood pressure was monitored on days 0, 4, 7 and 11, using a tail-cuff procedure. On day 14, systolic blood pressure was determined using the indwelling catheter procedure described in Example 7.\nThe rats used in Example 8 above, were additionally monitored for weight gain/loss as an additional marker for the rate of food consumption MAO inhibitors usually elevate central catechoiamines which may depress appetite."}, "SHR rats": {"tested_on": "SHR rats", "conditions": "for Change in Mean Systolic Blood Pressure / Change in Heart rate: 2 mg/kg p.o. daily", "protocol": "as §1"}, "[2]": {"tested_on": "reserpine induced ptosis in rats", "experiment": "Reserpine-induced ptosis in rats", "type": "in vivo", "conditions": "for Mean score of reserpine-induced ptosis: reserpine 5 mg/kg i.p., 0-4 scale, 4 = eyes completely open, saline 0.86", "text": "Reserpine-induced ptosis and its reversal test. Reserpine causes depletion of catecholamine stores, especially norepinephrine. This effect in the live animal is manifested among other things, in ptosis. Drugs that can prevent or inhibit reserpine-induced ptosis act either directly as noradrenergic agonists, or indirectly by decreasing or preventing the metabolic elimination of endogenous norepinephrine. MAO inhibitors belong to the latter category."}, "mice after CHI": {"tested_on": "mice after CHI", "conditions": "in words", "protocol": "(§2) The procedure for closed head injury followed was as described for rats in Shohami et al. (J Neurotrauma (1993) 10(2) 109-119) with changes as described.\n(§3) Animals: Male Sabra mice (Hebrew University strain) weighing 34-40 g were used. They were housed in groups of 10 per cage, in a 12 hr:12 hr. light:dark cycle. Food and water were provided ad libitium.\n(§4) Trauma was induced under anaesthesia. A longitudinal incision was performed in the skin covering the skull and the skin retracted to expose the skull. The head was fixed manually at the lower plane of the impact apparatus. A weight of 333 g was delivered by an electric device from a distance of 3 cm to the left hemisphere, 1-2 mm lateral to the midline in the midcoronal plane."}, "[3]": {"tested_on": "SHR (Spontaneously Hypertensive Rats) rats", "conditions": "for Change in HR / Change in MBAP: 45-60 min", "protocol": "(§5) A chronic indwelling catheter was implanted in the caudal artery under light anesthesia with averteen. The animals were allowed to recover and were tested 24 hours after implantation. The cathetar was connected to a Statham pressure transducer and blood pressure was recorded on a Grass multichannel Polygraph. During this period, the rat was kept in its home cage in order to minimize handling and undue manipulations known to affect blood pressure.\n(§6) Two strains of rats were used: WKY rats and matching SHR (Spontaneously Hypertensive Rats) rats. WKY rats were from a local strain, weighing about 250 g each.\nSHR rats were purchased from Charles River breeders, England. The animals were allowed to acclimatize and recover from the journey and were used at the age of three months, in order to match their WKY controls. SHR hypertension develops gradually from the age of one month to the age of three months. At this stage, blood pressure is already elevated above normotensive levels.\n(§7) Blood pressure and heart rate were then monitored for the duration of 45-60 minutes."}, "[4]": {"tested_on": "pressor response to catecholamines in the cat", "experiment": "Pressor response to catecholamines in the anesthetized cat before and after S(-)PAI", "type": "in vivo", "conditions": "S(-)PAI 1 mg/kg i.v.", "protocol": "(§8) Cats were anesthetized with i.v. nembutal 25 mg/kg. Anesthesia was maintained by additional injections of nembutal, 5 mg/kg, as needed. The femoral artery was cannulated and connected to a Statham pressure transducer for blood pressure recordings on a Grass multichannel Polygraph. The femoral vein was cannulated for i.v. injection of drugs."}, "[5]": {"tested_on": "male Wistar rats after middle cerebral artery occlusion (MCA-O)", "text": "In order to expose the left middle cerebral artery, a cut was made in the temporal muscle. The tip of the coronoid process of mandible was excised as well and removed with a fine rongeur. Craniectomy was made with a dental drill at the junction between the median wall and the roof of the inferotemporal fossa.\nThe dura matter was opened carefully using a 27 gauge needle. […] Following this, the temporalis muscle was sutured and laid over the craniectomy site. The skin was closed with a running 3-0 silk suture. […] The volume of brain tissue incurring damage following ischemia was determined."}, "anesthetized cat": {"tested_on": "anesthetized cat", "conditions": "for Change in MABP / Change in PR: 45-60 min", "protocol": "as §8"}, "WKY rats": {"tested_on": "WKY rats", "conditions": "for Change in HR / Change in MBAP: 45-60 min", "protocol": "as §5, §6, §7"}, "MAO-A/MAO-B": {"tested_on": "MAO-A/MAO-B", "conditions": "in vitro; in words; cited from earlier work"}, "[6]": {"tested_on": "injured mice after closed head injury (CHI)", "conditions": "1 mg/kg s.c. 15 min after CHI", "protocol": "as §2, §3, §4\nOne point was awarded for the lack of a tested reflex or for the inability to perform the task outline in the Table. The maximal score that can be reached at 1 hour post-CHI is 25 points and at later times, 21 points. The difference in NSS at 1 hr. and at any other time reflects the spontaneous recovery, and is referred to as ΔNSS. A score of 15-19 at 1 hr denotes severe injury, 11-14 denotes moderate injury and less than 10 denotes mild injury."}}, "note": "Values joined by “and” are separate entries in the source; they are usually repeats but may differ in a detail not shown here. Equal entries are not always repeated. Where two headings read alike, the source gives them in different places.", "data": [{"smiles": "C#CCN[C@H]1CCc2ccccc21", "note": "[S(-)PAI, S-(-)-N-propargyl-1-aminoindan]", "values": [{"measurement": "Weight", "setting": "[1]; day 0, tap water 317 ± 32.64", "value": "294.13 ± 32.06", "unit": "g"}, {"measurement": "Weight", "setting": "[1]; day 7, tap water 302.22 ± 35.17", "value": "292.25 ± 28.47", "unit": "g"}, {"measurement": "Weight", "setting": "[1]; day 14, tap water 312.89", "value": "307.33 ± 24.13", "unit": "g"}, {"measurement": "body weight", "setting": "[1]; 2 mg/kg/day, 14 days, in words", "value": "no effect on body weight"}, {"measurement": "Change in Mean Systolic Blood Pressure", "setting": "SHR rats; day 0, tap water 169.55 ± 7.73", "value": "166.88 ± 6.11", "unit": "mmHg"}, {"measurement": "Change in Heart rate", "setting": "SHR rats; day 0, tap water 374.09 ± 7.17", "value": "404.13 ± 32.86", "unit": "beats/min"}, {"measurement": "Change in Mean Systolic Blood Pressure", "setting": "SHR rats; day 4, tap water 177.82 ± 9.08", "value": "168.5 ± 12.8", "unit": "mmHg"}, {"measurement": "Change in Heart rate", "setting": "SHR rats; day 4, tap water 403 ± 23.3", "value": "394.5 ± 37.43", "unit": "beats/min"}, {"measurement": "Change in Mean Systolic Blood Pressure", "setting": "SHR rats; day 7, tap water 177.67 ± 10.21", "value": "172.13 ± 14.62", "unit": "mmHg"}, {"measurement": "Change in Heart rate", "setting": "SHR rats; day 7, tap water 392.67 ± 24.66", "value": "394.38 ± 24.47", "unit": "beats/min"}, {"measurement": "Change in Mean Systolic Blood Pressure", "setting": "SHR rats; day 11, tap water 178 ± 8.65", "value": "167.43 ± 14.23", "unit": "mmHg"}, {"measurement": "Change in Heart rate", "setting": "SHR rats; day 11, tap water 371.25 ± 27.22", "value": "408 ± 40.04", "unit": "beats/min"}, {"measurement": "intraindividual and interindividual profile of systolic blood pressure and heart rate", "setting": "SHR rats; chronic oral 2 mg/kg/day, in words", "value": "no effect"}, {"measurement": "Mean score of reserpine-induced ptosis", "setting": "[2]; 5 mg/kg i.p.", "value": 1.8}, {"measurement": "Mean score of reserpine-induced ptosis", "setting": "[2]; 10 mg/kg i.p.", "value": 2.5}, {"measurement": "Mean score of reserpine-induced ptosis", "setting": "[2]; 20 mg/kg i.p.", "value": 1.5}, {"measurement": "endogenous norepinephrine concentrations (inferred from ptosis scores)", "setting": "[2]; in words", "value": "does not cause an increase in endogenous norepinephrine concentrations"}, {"measurement": "latency to find the platform, compared to saline treated controls", "setting": "mice after CHI; FIG. 1, after CHI", "value": "reduction in latency"}, {"measurement": "memory, compared to saline-treated mice", "setting": "mice after CHI; after CHI", "value": "Memory is enhanced"}, {"measurement": "blood pressure and heart rate", "setting": "[3]; acute oral, in words", "value": "no effect on either parameter in either strain of rats"}, {"measurement": "Change in HR", "setting": "[3]; dose 1, oral", "value": -30, "unit": "beats/min"}, {"measurement": "Change in MBAP", "setting": "[3]; dose 1, oral", "value": -16, "unit": "mmHg"}, {"measurement": "Change in HR", "setting": "[3]; dose 2, oral", "value": 0, "unit": "beats/min"}, {"measurement": "Change in MBAP", "setting": "[3]; dose 2, oral", "value": -12, "unit": "mmHg"}, {"measurement": "Change in HR", "setting": "[3]; dose 10, oral", "value": 0, "unit": "beats/min"}, {"measurement": "Change in MBAP", "setting": "[3]; dose 10, oral", "value": 4, "unit": "mmHg"}, {"measurement": "Δ mean arterial pressure after S(-)PAI", "setting": "[4]; challenge norepinephrine 0.02 μg/kg", "value": 12, "unit": "mmHg"}, {"measurement": "Δ mean arterial pressure after S(-)PAI", "setting": "[4]; challenge norepinephrine 0.05 μg/kg", "value": 32, "unit": "mmHg"}, {"measurement": "Δ mean arterial pressure after S(-)PAI", "setting": "[4]; challenge norepinephrine 0.10 μg/kg", "value": 23, "unit": "mmHg"}, {"measurement": "Δ mean arterial pressure after S(-)PAI", "setting": "[4]; challenge norepinephrine 0.20 μg/kg", "value": 46, "unit": "mmHg"}, {"measurement": "Δ mean arterial pressure after S(-)PAI", "setting": "[4]; challenge phenylephrine 0.20 μg/kg", "value": 2, "unit": "mmHg"}, {"measurement": "Δ mean arterial pressure after S(-)PAI", "setting": "[4]; challenge phenylephrine 0.50 μg/kg", "value": 17, "unit": "mmHg"}, {"measurement": "Δ mean arterial pressure after S(-)PAI", "setting": "[4]; challenge phenylephrine 1.0 μg/kg", "value": 17, "unit": "mmHg"}, {"measurement": "Δ mean arterial pressure after S(-)PAI", "setting": "[4]; challenge phenylephrine 2.0 μg/kg", "value": 42, "unit": "mmHg"}, {"measurement": "Δ mean arterial pressure after S(-)PAI", "setting": "[4]; challenge tyramine 2.0 μg/kg", "value": 3, "unit": "mmHg"}, {"measurement": "Δ mean arterial pressure after S(-)PAI", "setting": "[4]; challenge tyramine 5.0 μg/kg", "value": 9, "unit": "mmHg"}, {"measurement": "Δ mean arterial pressure after S(-)PAI", "setting": "[4]; challenge tyramine 10.0 μg/kg", "value": 28, "unit": "mmHg"}, {"measurement": "Δ mean arterial pressure after S(-)PAI", "setting": "[4]; challenge tyramine 20.0 μg/kg", "value": 39, "unit": "mmHg"}, {"measurement": "potentiation of the pressor response", "setting": "[4]; phenylephrine, tyramine, norepinephrine, in words", "value": "no significant potentiation of the pressor response"}, {"measurement": "neurological severity score (NSS) and infarct volume versus saline-treated rats", "setting": "[5]; in words", "value": "significantly lower"}, {"measurement": "Mean NSS ± SEM after 24 hours", "setting": "[5]; ip, 2 mg/kg", "value": "6.5 ± 0.48"}, {"measurement": "Change in MABP", "setting": "anesthetized cat; dose 0.03, i.v.", "value": "7 mmHg and 5 mmHg"}, {"measurement": "Change in MABP", "setting": "anesthetized cat; dose 0.1, i.v.", "value": -12, "unit": "mmHg"}, {"measurement": "Change in PR", "setting": "anesthetized cat; dose 0.1, i.v.", "value": 0, "unit": "beats/min"}, {"measurement": "Change in MABP", "setting": "anesthetized cat; dose 1.0, i.v.", "value": 2, "unit": "mmHg"}, {"measurement": "Change in PR", "setting": "anesthetized cat; dose 1.0, i.v.", "value": -5, "unit": "beats/min"}, {"measurement": "mean arterial blood pressure (MABP) and heart rate (HR)", "setting": "anesthetized cat; i.v., up to cumulative dose of 1 mg/kg, 45-60 minutes, in words", "value": "neither mean arterial blood pressure (MABP) nor heart rate (HR) were affected"}, {"measurement": "blood pressure and heart rate", "setting": "WKY rats; acute oral, in words", "value": "no effect on either parameter in either strain of rats"}, {"measurement": "Change in HR", "setting": "WKY rats; dose 5, oral", "value": 0, "unit": "beats/min"}, {"measurement": "Change in MBAP", "setting": "WKY rats; dose 5, oral", "value": 0, "unit": "mmHg"}, {"measurement": "Change in HR", "setting": "WKY rats; dose 10, oral", "value": 0, "unit": "beats/min"}, {"measurement": "Change in MBAP", "setting": "WKY rats; dose 10, oral", "value": 0, "unit": "mmHg"}, {"measurement": "Change in HR", "setting": "WKY rats; dose 20, oral", "value": 0, "unit": "beats/min"}, {"measurement": "preference for MAO-B or MAO-A", "setting": "MAO-A/MAO-B", "value": "no preference to either substrate"}, {"measurement": "Δ NSS, 24 hr post-CHI", "setting": "[6]; saline 4.75 ± 0.17", "value": "5.06 ± 0.25"}, {"measurement": "Δ NSS, 7 days post-CHI", "setting": "[6]; saline 5.83 ± 0.36", "value": "7.19 ± 0.28"}, {"measurement": "Δ NSS, 14 days post-CHI", "setting": "[6]; saline 5.96 ± 0.4", "value": "7.88 ± 0.36"}]}]}
